Values belong to the compound of their own block, whether it stands above or below them.
System: 276233-004-R-J1-PDC complex spheroid viability
Assay: Anticancer human tumor 276233-004-R-J1-PDC patient-derived colon adenocarcinoma cell line growth inhibition [GQUAD]
Details: for IC50: curve of first compound; for viability, T/C: stronger effect = lower value
In short: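 Viability of tumor cells grown as complex spheroids with endothelial and stromal cells, exposed to drug combinations. Top concentration at or near clinical Cmax (else 10 microM), diluted in half-log increments.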

[1] = second compound 0.0316 µM, first compound 0.0316 µM
[2] = second compound 0.0316 µM, first compound 0.1 µM
[3] = second compound 0.0316 µM, first compound 0.316 µM
[4] = second compound 0.0316 µM, first compound 1 µM
[5] = second compound 0.0316 µM, first compound 3.16 µM
[6] = second compound 0.0316 µM, first compound 10 µM
[7] = second compound 0.1 µM, first compound 0.0316 µM
[8] = second compound 0.1 µM, first compound 0.1 µM
[9] = second compound 0.1 µM, first compound 0.316 µM
[10] = second compound 0.1 µM, first compound 1 µM
[11] = second compound 0.1 µM, first compound 3.16 µM
[12] = second compound 0.1 µM, first compound 10 µM
[13] = second compound 0.316 µM, first compound 0.0316 µM
[14] = second compound 0.316 µM, first compound 0.1 µM
[15] = second compound 0.316 µM, first compound 0.316 µM
[16] = second compound 0.316 µM, first compound 1 µM
[17] = second compound 0.316 µM, first compound 3.16 µM
[18] = second compound 0.316 µM, first compound 10 µM
[19] = second compound 1 µM, first compound 0.0316 µM
[20] = second compound 1 µM, first compound 0.1 µM
[21] = second compound 1 µM, first compound 0.316 µM
[22] = second compound 1 µM, first compound 1 µM
[23] = second compound 1 µM, first compound 3.16 µM
[24] = second compound 1 µM, first compound 10 µM
[25] = second compound 3.16 µM, first compound 0.0316 µM
[26] = second compound 3.16 µM, first compound 0.1 µM
[27] = second compound 3.16 µM, first compound 0.316 µM
[28] = second compound 3.16 µM, first compound 1 µM
[29] = second compound 3.16 µM, first compound 3.16 µM
[30] = second compound 3.16 µM, first compound 10 µM
[31] = second compound 10 µM, first compound 0.0316 µM
[32] = second compound 10 µM, first compound 0.1 µM
[33] = second compound 10 µM, first compound 0.316 µM
[34] = second compound 10 µM, first compound 1 µM
[35] = second compound 10 µM, first compound 3.16 µM
[36] = second compound 10 µM, first compound 10 µM
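Also: spheroids exposed to drugs for seven days.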
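For viability, T/C in this document: 100% = DMSO vehicle control viability.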

IC50 (second compound 0.0316 µM): > 10 µM | IC50 (second compound 0.1 µM): > 10 µM | IC50 (second compound 0.316 µM): > 10 µM | IC50 (second compound 1 µM): > 10 µM | IC50 (second compound 3.16 µM): > 10 µM | IC50 (second compound 10 µM): 8.24 µM
SMILES: C=CCn1c(=O)c2cnc(Nc3ccc(N4CCN(C)CC4)cc3)nc2n1-c1cccc(C(C)(C)O)n1 + Cc1cnc(CNC(=O)c2c(=O)c3ccc(N4CCCN(C)CC4)nc3n3c2sc2ccccc23)cn1
viability, T/C [1]: 93.4% | viability, T/C [2]: 70.5% | viability, T/C [3]: 64.3% | viability, T/C [4]: 65.9% | viability, T/C [5]: 69.1% | viability, T/C [6]: 78% | viability, T/C [7]: 75.9% | viability, T/C [8]: 86% | viability, T/C [9]: 80.2% | viability, T/C [10]: 72.2% | viability, T/C [11]: 73.1% | viability, T/C [12]: 67.8% | viability, T/C [13]: 89.8% | viability, T/C [14]: 82.1% | viability, T/C [15]: 76% | viability, T/C [16]: 61.3% | viability, T/C [17]: 66% | viability, T/C [18]: 61.9% | viability, T/C [19]: 76.1% | viability, T/C [20]: 83% | viability, T/C [21]: 76.5% | viability, T/C [22]: 67.9% | viability, T/C [23]: 62% | viability, T/C [24]: 62.4% | viability, T/C [25]: 76.5% | viability, T/C [26]: 71.5% | viability, T/C [27]: 59.6% | viability, T/C [28]: 55.4% | viability, T/C [29]: 52.5% | viability, T/C [30]: 58% | viability, T/C [31]: 57.8% | viability, T/C [32]: 66.1% | viability, T/C [33]: 65.6% | viability, T/C [34]: 54.9% | viability, T/C [35]: 58.6% | viability, T/C [36]: 48.4%

SMILES: COc1ncnc(C2CC2)c1-c1ncc2cnn(Cc3ccc(-c4nc(C(F)(F)F)cn4C(C)C)cc3)c2n1 + Cc1[nH]c2ccc(F)cc2c1-c1nc2c3cccnc3c3ncccc3c2[nH]1
IC50 (second compound 0.0316 µM): > 10 µM | IC50 (second compound 0.1 µM): > 10 µM | IC50 (second compound 0.316 µM): > 10 µM | IC50 (second compound 1 µM): 0.886 µM | IC50 (second compound 3.16 µM): < 0.0316 µM | IC50 (second compound 10 µM): < 0.0316 µM | viability, T/C [1]: 87.2% | viability, T/C [2]: 81.3% | viability, T/C [3]: 79.2% | viability, T/C [4]: 76.4% | viability, T/C [5]: 80.4% | viability, T/C [6]: 76.2% | viability, T/C [7]: 75.5% | viability, T/C [8]: 79.2% | viability, T/C [9]: 63.5% | viability, T/C [10]: 75.7% | viability, T/C [11]: 66.6% | viability, T/C [12]: 71% | viability, T/C [13]: 70% | viability, T/C [14]: 63.3% | viability, T/C [15]: 83.6% | viability, T/C [16]: 53.4% | viability, T/C [17]: 73% | viability, T/C [18]: 72% | viability, T/C [19]: 58% | viability, T/C [20]: 42.3% | viability, T/C [21]: 57.8% | viability, T/C [22]: 51.4% | viability, T/C [23]: 48.3% | viability, T/C [24]: 45.3% | viability, T/C [25]: 18.7% | viability, T/C [26]: 16.2% | viability, T/C [27]: 15.2% | viability, T/C [28]: 14.9% | viability, T/C [29]: 12.7% | viability, T/C [30]: 20.7% | viability, T/C [31]: 34.3% | viability, T/C [32]: 29.5% | viability, T/C [33]: 47.7% | viability, T/C [34]: 31.4% | viability, T/C [35]: 27.4% | viability, T/C [36]: 33.6%

SMILES: CC(C)(O)C1CCC(Nc2ccc3ncc(-c4cccc(C(F)(F)F)c4)n3n2)CC1 (stereo not drawn) + Cc1[nH]c2ccc(F)cc2c1-c1nc2c3cccnc3c3ncccc3c2[nH]1
IC50 (second compound 0.0316 µM): 2.15 µM | IC50 (second compound 0.1 µM): 0.922 µM | IC50 (second compound 0.316 µM): 0.558 µM | IC50 (second compound 1 µM): < 0.0316 µM | IC50 (second compound 3.16 µM): < 0.0316 µM | IC50 (second compound 10 µM): < 0.0316 µM | viability, T/C [1]: 78.5% | viability, T/C [2]: 68.9% | viability, T/C [3]: 72.2% | viability, T/C [4]: 54.3% | viability, T/C [5]: 46.7% | viability, T/C [6]: 48.8% | viability, T/C [7]: 73.3% | viability, T/C [8]: 71% | viability, T/C [9]: 75.6% | viability, T/C [10]: 48.2% | viability, T/C [11]: 42.2% | viability, T/C [12]: 43.7% | viability, T/C [13]: 56.8% | viability, T/C [14]: 61% | viability, T/C [15]: 64.2% | viability, T/C [16]: 39% | viability, T/C [17]: 34.8% | viability, T/C [18]: 40.9% | viability, T/C [19]: 46.4% | viability, T/C [20]: 39.4% | viability, T/C [21]: 40% | viability, T/C [22]: 25.2% | viability, T/C [23]: 26.6% | viability, T/C [24]: 24.5% | viability, T/C [25]: 17.1% | viability, T/C [26]: 14.1% | viability, T/C [27]: 17.6% | viability, T/C [28]: 16.2% | viability, T/C [29]: 10.1% | viability, T/C [30]: 7.57% | viability, T/C [31]: 39.4% | viability, T/C [32]: 38% | viability, T/C [33]: 33.9% | viability, T/C [34]: 30.9% | viability, T/C [35]: 13.7% | viability, T/C [36]: 10.8%

SMILES: CC(C)n1c(=O)n(C)c2cnc3cc(F)c(-c4ccc(OCCCN5CCCCC5)nc4)cc3c21 + Cc1[nH]c2ccc(F)cc2c1-c1nc2c3cccnc3c3ncccc3c2[nH]1
IC50 (second compound 0.0316 µM): > 10 µM | IC50 (second compound 0.1 µM): > 10 µM | IC50 (second compound 0.316 µM): > 10 µM | IC50 (second compound 1 µM): > 10 µM | IC50 (second compound 3.16 µM): 3.22 µM | IC50 (second compound 10 µM): < 0.0316 µM | viability, T/C [1]: 98.8% | viability, T/C [2]: 86.7% | viability, T/C [3]: 110% | viability, T/C [4]: 80.8% | viability, T/C [5]: 103% | viability, T/C [6]: 82.9% | viability, T/C [7]: 90.9% | viability, T/C [8]: 88.7% | viability, T/C [9]: 85% | viability, T/C [10]: 100% | viability, T/C [11]: 78.2% | viability, T/C [12]: 84.8% | viability, T/C [13]: 88.1% | viability, T/C [14]: 94.3% | viability, T/C [15]: 79% | viability, T/C [16]: 94.2% | viability, T/C [17]: 104% | viability, T/C [18]: 87.8% | viability, T/C [19]: 72.8% | viability, T/C [20]: 73.3% | viability, T/C [21]: 82.2% | viability, T/C [22]: 70.1% | viability, T/C [23]: 80.8% | viability, T/C [24]: 69.7% | viability, T/C [25]: 52% | viability, T/C [26]: 49.2% | viability, T/C [27]: 55% | viability, T/C [28]: 45.8% | viability, T/C [29]: 50.9% | viability, T/C [30]: 26.8% | viability, T/C [31]: 48.7% | viability, T/C [32]: 47% | viability, T/C [33]: 54.9% | viability, T/C [34]: 42% | viability, T/C [35]: 47% | viability, T/C [36]: 21.7%

Source: PubChem BioAssay AID2060496 (Molecular Pharmacology Branch, DTP, NCI, 2025)
